Consider two compounds from patent US11932595B2, “VDR-silent vitamin D derivative as inhibitors of SREBP and pharmaceutical use thereof” (KYOTO UNIVERSITY, priority 2020, dated 2024).

For the test, the target named is T1, endogenous SREBP-2 and SCAP (Cricetulus griseus, UniProt P97260).
T1 construct: Western blot analysis of endogenous SREBP-2 and SCAP; endogenous in cells; host or cells: CHO-K1
T1 sequence (P97260 1-1276): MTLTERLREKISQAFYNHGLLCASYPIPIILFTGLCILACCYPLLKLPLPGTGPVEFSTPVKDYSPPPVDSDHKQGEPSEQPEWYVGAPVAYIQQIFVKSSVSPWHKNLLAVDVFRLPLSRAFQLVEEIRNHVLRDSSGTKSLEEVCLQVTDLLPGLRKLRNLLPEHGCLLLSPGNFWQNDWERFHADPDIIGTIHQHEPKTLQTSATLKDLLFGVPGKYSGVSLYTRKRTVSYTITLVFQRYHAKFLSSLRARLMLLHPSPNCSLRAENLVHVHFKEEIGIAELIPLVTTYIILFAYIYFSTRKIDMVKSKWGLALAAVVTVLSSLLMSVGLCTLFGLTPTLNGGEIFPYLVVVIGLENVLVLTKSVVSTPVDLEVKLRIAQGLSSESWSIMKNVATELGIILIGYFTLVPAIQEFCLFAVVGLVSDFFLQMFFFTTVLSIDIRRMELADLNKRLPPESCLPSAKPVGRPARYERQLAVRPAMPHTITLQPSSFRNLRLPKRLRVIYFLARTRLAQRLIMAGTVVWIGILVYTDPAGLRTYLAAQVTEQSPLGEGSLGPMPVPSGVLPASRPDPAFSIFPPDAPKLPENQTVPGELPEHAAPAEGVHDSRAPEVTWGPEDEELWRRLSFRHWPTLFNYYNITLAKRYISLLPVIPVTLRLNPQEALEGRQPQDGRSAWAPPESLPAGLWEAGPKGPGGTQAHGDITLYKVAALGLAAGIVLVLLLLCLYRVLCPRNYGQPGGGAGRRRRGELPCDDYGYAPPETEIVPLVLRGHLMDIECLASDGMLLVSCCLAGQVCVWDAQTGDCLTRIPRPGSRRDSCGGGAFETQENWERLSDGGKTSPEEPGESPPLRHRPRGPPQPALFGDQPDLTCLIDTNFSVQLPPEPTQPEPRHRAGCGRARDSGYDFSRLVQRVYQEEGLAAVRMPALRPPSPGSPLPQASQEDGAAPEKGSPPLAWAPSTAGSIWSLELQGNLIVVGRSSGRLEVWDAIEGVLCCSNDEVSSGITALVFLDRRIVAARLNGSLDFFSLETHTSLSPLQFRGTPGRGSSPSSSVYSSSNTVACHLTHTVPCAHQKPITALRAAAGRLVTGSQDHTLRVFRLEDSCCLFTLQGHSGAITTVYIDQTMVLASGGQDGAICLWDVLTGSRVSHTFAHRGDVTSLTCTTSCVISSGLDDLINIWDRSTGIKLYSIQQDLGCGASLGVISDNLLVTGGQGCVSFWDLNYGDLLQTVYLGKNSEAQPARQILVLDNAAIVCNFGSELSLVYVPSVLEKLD
T1 sequence (Q60429 1-1139 partner): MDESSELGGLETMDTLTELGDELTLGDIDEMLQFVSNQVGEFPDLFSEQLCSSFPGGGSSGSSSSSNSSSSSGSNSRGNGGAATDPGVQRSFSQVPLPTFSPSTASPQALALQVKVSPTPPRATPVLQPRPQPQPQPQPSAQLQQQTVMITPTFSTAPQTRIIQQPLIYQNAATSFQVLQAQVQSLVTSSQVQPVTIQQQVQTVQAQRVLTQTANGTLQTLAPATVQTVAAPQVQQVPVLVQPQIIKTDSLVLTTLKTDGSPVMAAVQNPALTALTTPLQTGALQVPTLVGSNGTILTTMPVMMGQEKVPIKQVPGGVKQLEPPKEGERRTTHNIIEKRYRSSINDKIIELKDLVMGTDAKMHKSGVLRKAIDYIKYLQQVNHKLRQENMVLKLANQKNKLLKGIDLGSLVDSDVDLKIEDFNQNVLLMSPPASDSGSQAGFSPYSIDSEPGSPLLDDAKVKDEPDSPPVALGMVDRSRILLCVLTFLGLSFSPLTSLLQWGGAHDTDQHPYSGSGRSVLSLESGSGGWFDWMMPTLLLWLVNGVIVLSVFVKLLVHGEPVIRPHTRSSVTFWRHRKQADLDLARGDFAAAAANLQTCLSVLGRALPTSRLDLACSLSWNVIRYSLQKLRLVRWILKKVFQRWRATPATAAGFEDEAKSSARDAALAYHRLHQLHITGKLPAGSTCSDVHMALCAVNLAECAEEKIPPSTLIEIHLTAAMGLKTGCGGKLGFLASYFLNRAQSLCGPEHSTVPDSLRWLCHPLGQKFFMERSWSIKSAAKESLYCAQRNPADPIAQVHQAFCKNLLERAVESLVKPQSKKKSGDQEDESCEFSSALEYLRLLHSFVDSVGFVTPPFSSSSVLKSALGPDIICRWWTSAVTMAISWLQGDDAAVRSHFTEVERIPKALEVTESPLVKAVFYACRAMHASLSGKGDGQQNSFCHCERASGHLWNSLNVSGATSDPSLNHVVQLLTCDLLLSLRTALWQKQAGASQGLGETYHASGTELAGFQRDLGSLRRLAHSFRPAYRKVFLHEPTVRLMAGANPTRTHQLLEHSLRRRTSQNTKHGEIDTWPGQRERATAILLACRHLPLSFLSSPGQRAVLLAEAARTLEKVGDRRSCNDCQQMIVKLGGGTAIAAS
The experiment in a line: Western blot analysis of endogenous SREBP-2 and SCAP in CHO-K1 cells. It is filed as cell-based. The settings on record: FIG. 6B; for protein levels of precursor and mature forms of SREBP-2 and of SCAP: CHO-K1 cells, lipid-free medium, 24 h. The method, then: 25(OH)D3 and KK-052 decreased the protein levels of both precursor and mature forms of SREBP-2, as well as SCAP. (CHO-K1 cells were treated with the compound in a lipid-free medium for 24 h); (C) Western blot analysis of SCAP: CHO-K1 cells expressing FLAG-tagged SCAP were treated with the compound in a lipid-free medium for 24 h and immunoblots were performed with an anti-FLAG antibody.
The effects of KK-052 (50) on SREBP and SCAP by gene reporter assay and Western blot analysis were verified. […] Overall, the results were consistent with the effects of KK-052 in vivo.

Entries after “also recorded” stand apart in the source; their conditions may differ.

Turning to `C=C1CC[C@H](O)C/C1=C/C=C1\CCC[C@]2(C)[C@@H]([C@H](C)CCCC(C)(C)O)CC[C@@H]12` [25(OH)D3, 25-hydroxyvitamin D3, reference compound], the “protein levels of precursor and mature forms of SREBP-2 and of SCAP” value is listed as “decreased”. Take `C[C@H](CCC(F)(F)C(C)(C)O)[C@H]1CC[C@H]2/C(=C/Cn3nnnc3-c3ccccc3)CCC[C@]12C` [Compound 50, (R)-3,3-Difluoro-2-methyl-6-{(1R,3aS,7aR,E)-7a-methyl-4-[2-(5-phenyl-1H-tetrazol-1-yl)ethylidene]octahydro-1H-inden-1-yl}heptan-2-ol]: the “effect on endogenous SREBP and SCAP levels at 1 μM” value (1 μM concentration) is given as “less evident”. For the same compound, the “protein levels of precursor and mature forms of SREBP-2 and of SCAP” value (listed as KK-052) is “decreased; also recorded: decreasing the level”.
